Reference: ChEMBL document CHEMBL4680258, “Synthesis, characterization and carbonic anhydrase I and II inhibitory evaluation of new sulfonamide derivatives bearing dithiocarbamate” (Eur J Med Chem, 2020)

The compounds below were run on NIH3T3 (assay: Cytotoxicity against mouse NIH/3T3 cells assessed as reduction in cell viability incubated for 24 hrs by MTT assay). Settings: NIH3T3, 24 h.
Format: cell-based
Compound NS(=O)(=O)c1ccc(NC(=O)CSC(=S)N2CCN(c3ccccn3)CC2)cc1 has an IC50 of 18.5 µM.
For NS(=O)(=O)c1ccc(NC(=O)CSC(=S)N2CCN(c3ncccn3)CC2)cc1, the IC50 was 16.5 µM.
With Cc1ccc(CN2CCN(C(=S)SCC(=O)Nc3ccc(S(N)(=O)=O)cc3)CC2)cc1 the IC50 was 58.1 µM.
Compound CN1CCN(C(=S)SCC(=O)Nc2ccc(S(N)(=O)=O)cc2)CC1 has an IC50 of 14.5 µM.
CN(C)CCN1CCN(C(=S)SCC(=O)Nc2ccc(S(N)(=O)=O)cc2)CC1 was tested, and the IC50 was over 1000 µM.
With CN(C)CCCN1CCN(C(=S)SCC(=O)Nc2ccc(S(N)(=O)=O)cc2)CC1 the IC50 was over 1000 µM.
